# Laboratory results as given in paper PMC10762078, “Role of UPF1-LIN28A interaction during early differentiation of pluripotent stem cells” (Nature Communications, 2024).
# System: hPSCs
# Experiment: RT-qPCR of pluripotency and germ-layer markers during differentiation with CPP-peptides (Supplementary Fig. 7b-e)
# Type: cell-based, human
# Method: For CPP-conjugated peptide delivery, HeLa, 293T, and PA-1 cells were incubated with CPP-conjugated peptides or CPP-FITC at 2 μM in DMEM with 10% FBS for 12 h a day before cell harvest. hPSCs were treated with CPP-conjugated peptides at 10 μM in mTeSR Plus Medium, and the peptide-containing medium was changed every day over 10 days. The ROCK inhibitor (Tocris Bioscience, Y-27632) treated-hPSCs were dissociated into single cells using Accutase (Merck, SCR005) and differentiated into ectoderm, mesoderm, and endoderm using the STEMdiff Trilineage Differentiation Kit ([…] Technologies, 05230) following the manufacturer’s protocol. Differentiated cells treated with CPP-conjugated peptides were analysed at 0, 3, and 5 days for ectoderm and endoderm, and at 0, 3, and 4 days for mesoderm. […]
# cDNA was synthesised using RevertAid Reverse Transcriptase (Thermo Fisher Scientific, EP0441) with synthesised random hexamer (Macrogen) for total RNA or stem-loop primers for miRNA. For RT-qPCR reactions, the SensiFAST SYBR No-ROX kit (Meridian Bioscience) was used according to the manufacturer’s protocol. All data analysis and visualisation were conducted using R 3.6.1 [www.r-project.org] or GraphPad Prism 10. RT primers for miRNA and RT-qPCR primer sequences are provided in Supplementary Data 6. […]
# FPKM of each gene was presented f r om RNA-seq analysis. b–e hPSCs wer e treated with the indicated peptide during each germ la ye r differentiation. […]
# An unpaired Student’s t-test was used for a–e. Data are presented as mean values ± SEM. All statistical test us ed wer e two-s ided. T he m inim um number of independent biological replicate experim ents was a–f n = 3. T he experiments wer e conducted three tim es, each iteration producing consistent results.
# [1] = Fig. s7d, day 3, mean of 3 replicates
# [2] = Fig. s7d, day 4, mean of 3 replicates
substance,measurement,setting,value
"N-QKLDQKELQLEPM-C [P1, reference compound]",CXCR4 (RT-qPCR),"Day 0, replicate 1, Fig. s7e",1.088
same,CXCR4 (RT-qPCR),"Day 0, replicate 2, Fig. s7e",0.7848
same,CXCR4 (RT-qPCR),"Day 0, replicate 3, Fig. s7e",1.127
same,CXCR4 (RT-qPCR),"Day 3, replicate 1, Fig. s7e",801.652
same,CXCR4 (RT-qPCR),"Day 3, replicate 2, Fig. s7e",485.59
same,CXCR4 (RT-qPCR),"Day 3, replicate 3, Fig. s7e",555.318
same,CXCR4 (RT-qPCR),"Day 5, replicate 1, Fig. s7e",1042.02
same,CXCR4 (RT-qPCR),"Day 5, replicate 2, Fig. s7e",799.656
same,CXCR4 (RT-qPCR),"Day 5, replicate 3, Fig. s7e",801.596
same,Mean CXCR4 (RT-qPCR),"CXCR4 day 3, mean of n = 3, Fig. s7e",614.2
same,Mean CXCR4 (RT-qPCR),"CXCR4 day 5, mean of n = 3, Fig. s7e",881.1
same,FOXA1 (RT-qPCR),"Day 0, replicate 1, Fig. s7e",1.247
same,FOXA1 (RT-qPCR),"Day 0, replicate 2, Fig. s7e",1.413
same,FOXA1 (RT-qPCR),"Day 0, replicate 3, Fig. s7e",0.3396
same,FOXA1 (RT-qPCR),"Day 3, replicate 1, Fig. s7e",110.429
same,FOXA1 (RT-qPCR),"Day 3, replicate 2, Fig. s7e",100.761
same,FOXA1 (RT-qPCR),"Day 3, replicate 3, Fig. s7e",171.159
same,FOXA1 (RT-qPCR),"Day 5, replicate 1, Fig. s7e",247.532
same,FOXA1 (RT-qPCR),"Day 5, replicate 2, Fig. s7e",297.277
same,FOXA1 (RT-qPCR),"Day 5, replicate 3, Fig. s7e",395.679
same,Mean FOXA1 (RT-qPCR),"FOXA1 day 5, mean of n = 3, Fig. s7e",313.5
same,"SOX2 mRNA level (RT-qPCR), mean","Fig. s7b, mesoderm, day 4, mean of 3 replicates",0.001971
same,BMP2 mRNA level (RT-qPCR),"Fig. s7d, Day 0, replicate 1",0.8054
same,BMP4 mRNA level (RT-qPCR),"Fig. s7d, Day 0, replicate 1",1.545
same,CDH2 mRNA level (RT-qPCR),"Fig. s7d, Day 0, replicate 1",1.016
same,CXCR4 mRNA level (RT-qPCR),"Fig. s7d, Day 0, replicate 1",0.9995
same,SNAI1 mRNA level (RT-qPCR),"Fig. s7d, Day 0, replicate 1",1.4406
same,TBXT mRNA level (RT-qPCR),"Fig. s7d, Day 0, replicate 1",1.3
same,BMP2 mRNA level (RT-qPCR),"Fig. s7d, Day 0, replicate 2",1.199
same,BMP4 mRNA level (RT-qPCR),"Fig. s7d, Day 0, replicate 2",0.6508
same,CDH2 mRNA level (RT-qPCR),"Fig. s7d, Day 0, replicate 2",0.7569
same,CXCR4 mRNA level (RT-qPCR),"Fig. s7d, Day 0, replicate 2",1.121
same,SNAI1 mRNA level (RT-qPCR),"Fig. s7d, Day 0, replicate 2",0.9418
same,TBXT mRNA level (RT-qPCR),"Fig. s7d, Day 0, replicate 2",0.8652
same,BMP2 mRNA level (RT-qPCR),"Fig. s7d, Day 0, replicate 3",0.9954
same,BMP4 mRNA level (RT-qPCR),"Fig. s7d, Day 0, replicate 3",0.8046
same,CDH2 mRNA level (RT-qPCR),"Fig. s7d, Day 0, replicate 3",1.227
same,CXCR4 mRNA level (RT-qPCR),"Fig. s7d, Day 0, replicate 3",0.8798
same,SNAI1 mRNA level (RT-qPCR),"Fig. s7d, Day 0, replicate 3",0.6176
same,TBXT mRNA level (RT-qPCR),"Fig. s7d, Day 0, replicate 3",0.8351
same,BMP2 mRNA level (RT-qPCR),"Fig. s7d, Day 3, replicate 1",1.069
same,BMP4 mRNA level (RT-qPCR),"Fig. s7d, Day 3, replicate 1",26.604
same,CDH2 mRNA level (RT-qPCR),"Fig. s7d, Day 3, replicate 1",19.4651
same,CXCR4 mRNA level (RT-qPCR),"Fig. s7d, Day 3, replicate 1",690.154
same,SNAI1 mRNA level (RT-qPCR),"Fig. s7d, Day 3, replicate 1",17.0238
same,TBXT mRNA level (RT-qPCR),"Fig. s7d, Day 3, replicate 1",6332.26
same,BMP2 mRNA level (RT-qPCR),"Fig. s7d, Day 3, replicate 2",1.012
same,BMP4 mRNA level (RT-qPCR),"Fig. s7d, Day 3, replicate 2",28.0652
same,CDH2 mRNA level (RT-qPCR),"Fig. s7d, Day 3, replicate 2",19.9537
same,CXCR4 mRNA level (RT-qPCR),"Fig. s7d, Day 3, replicate 2",760.409
same,SNAI1 mRNA level (RT-qPCR),"Fig. s7d, Day 3, replicate 2",25.1744
same,TBXT mRNA level (RT-qPCR),"Fig. s7d, Day 3, replicate 2",7659.6
same,BMP2 mRNA level (RT-qPCR),"Fig. s7d, Day 3, replicate 3",1.524
same,BMP4 mRNA level (RT-qPCR),"Fig. s7d, Day 3, replicate 3",46.0509
same,CDH2 mRNA level (RT-qPCR),"Fig. s7d, Day 3, replicate 3",27.2966
same,CXCR4 mRNA level (RT-qPCR),"Fig. s7d, Day 3, replicate 3",857.014
same,SNAI1 mRNA level (RT-qPCR),"Fig. s7d, Day 3, replicate 3",26.6105
same,TBXT mRNA level (RT-qPCR),"Fig. s7d, Day 3, replicate 3",10449.6
same,BMP2 mRNA level (RT-qPCR),"Fig. s7d, Day 4, replicate 1",0.2301
same,BMP4 mRNA level (RT-qPCR),"Fig. s7d, Day 4, replicate 1",13.0546
same,CDH2 mRNA level (RT-qPCR),"Fig. s7d, Day 4, replicate 1",16.734
same,CXCR4 mRNA level (RT-qPCR),"Fig. s7d, Day 4, replicate 1",712.401
same,SNAI1 mRNA level (RT-qPCR),"Fig. s7d, Day 4, replicate 1",5.736
same,TBXT mRNA level (RT-qPCR),"Fig. s7d, Day 4, replicate 1",3587.41
same,BMP2 mRNA level (RT-qPCR),"Fig. s7d, Day 4, replicate 2",0.3418
same,BMP4 mRNA level (RT-qPCR),"Fig. s7d, Day 4, replicate 2",14.5702
same,CDH2 mRNA level (RT-qPCR),"Fig. s7d, Day 4, replicate 2",18.1378
same,CXCR4 mRNA level (RT-qPCR),"Fig. s7d, Day 4, replicate 2",778.248
same,SNAI1 mRNA level (RT-qPCR),"Fig. s7d, Day 4, replicate 2",15.183
same,TBXT mRNA level (RT-qPCR),"Fig. s7d, Day 4, replicate 2",4442.19
same,BMP2 mRNA level (RT-qPCR),"Fig. s7d, Day 4, replicate 3",0.2814
same,BMP4 mRNA level (RT-qPCR),"Fig. s7d, Day 4, replicate 3",11.4814
same,CDH2 mRNA level (RT-qPCR),"Fig. s7d, Day 4, replicate 3",17.3255
same,CXCR4 mRNA level (RT-qPCR),"Fig. s7d, Day 4, replicate 3",495.057
same,SNAI1 mRNA level (RT-qPCR),"Fig. s7d, Day 4, replicate 3",11.0955
same,TBXT mRNA level (RT-qPCR),"Fig. s7d, Day 4, replicate 3",3830.03
same,"SNAI1 mRNA level (RT-qPCR), mean",[1],22.94
same,"TBXT mRNA level (RT-qPCR), mean",[1],8147
same,"BMP4 mRNA level (RT-qPCR), mean",[2],13.04
same,"CDH2 mRNA level (RT-qPCR), mean",[2],17.4
same,"TBXT mRNA level (RT-qPCR), mean",[2],3953
same,GATA4 (RT-qPCR),"Day 0, replicate 1, Fig. s7e",0.7242
same,GATA4 (RT-qPCR),"Day 0, replicate 2, Fig. s7e",1.3517
same,GATA4 (RT-qPCR),"Day 0, replicate 3, Fig. s7e",0.9241
same,GATA4 (RT-qPCR),"Day 3, replicate 1, Fig. s7e",30.0473
same,GATA4 (RT-qPCR),"Day 3, replicate 2, Fig. s7e",43.5025
same,GATA4 (RT-qPCR),"Day 3, replicate 3, Fig. s7e",37.4013
same,GATA4 (RT-qPCR),"Day 5, replicate 1, Fig. s7e",61.3703
same,GATA4 (RT-qPCR),"Day 5, replicate 2, Fig. s7e",60.3509
same,GATA4 (RT-qPCR),"Day 5, replicate 3, Fig. s7e",57.9664
same,SOX17 (RT-qPCR),"Day 0, replicate 1, Fig. s7e",1.264
same,SOX17 (RT-qPCR),"Day 0, replicate 2, Fig. s7e",0.8709
same,SOX17 (RT-qPCR),"Day 0, replicate 3, Fig. s7e",0.8647
same,SOX17 (RT-qPCR),"Day 3, replicate 1, Fig. s7e",1651.55
same,SOX17 (RT-qPCR),"Day 3, replicate 2, Fig. s7e",1098.49
same,SOX17 (RT-qPCR),"Day 3, replicate 3, Fig. s7e",1780.82
same,SOX17 (RT-qPCR),"Day 5, replicate 1, Fig. s7e",1087.63
same,SOX17 (RT-qPCR),"Day 5, replicate 2, Fig. s7e",1382.51
same,SOX17 (RT-qPCR),"Day 5, replicate 3, Fig. s7e",1398.03
